Results published in patent US11827628B2, “Compositions and methods for inhibition of the JAK pathway” (Rigel Pharmaceuticals, Inc., priority 2005, dated 2023).
pIC50: −log10 of the molar value.

What follows are compounds tested on IL-4 stimulated expression of CD23 in human Ramos B cells (JAK-1 and JAK-3) (assay: Assay for Ramos B-Cell Line Stimulated with IL-4 (CD23 upregulation, FACS)). Details: Homo sapiens, Ramos, Ramos B cells stimulated with IL-4, CD23 expression by FACS; read-out: IC50, Example 41.
Assay type: cell-based
Description: One means of assaying for such inhibition is detection of the effect of the 2,4-substituted pyrimidinediamine compounds on the upregulation of downstream gene products. In the Ramos/IL4 assay, B-cells are stimulated with the cytokine Interleukin-4 (IL-4) leading to the activation of the JAK/Stat pathway through phosphorylation of the JAK family kinases, JAK1 and JAK3, which in turn phosphorylate and activate the transcription factor Stat-6. […] To study the effect of inhibitors (e.g., the 2,4-substituted pyrimindinediamine compounds described herein) on the JAK1 and JAK3 kinases, human Ramos B cells are stimulated with human IL-4. Twenty to 24 hours post stimulation, cells are stained for upregulation of CD23 and analyzed using flow cytometry (FACS). […] An exemplary assay of this type is described in greater detail in Example 41
B-cells stimulated with cytokine Interleukin-4 (IL-4) activate the JAK/Stat pathway through phosphorylation of the JAK family kinases, JAK-1 and JAK-3, which in turn phosphorylate and activate the transcription factor Stat-6. […] To study the effect of inhibitors on the JAK family kinases, human Ramos B cells are stimulated with human IL-4.
The Ramos B-cell line was acquired from ATCC (ATCC Catalog No. CRL-1596). The cells were cultured in RPMI 1640 (Cellgro, MediaTech, Inc., Herndon, VA, Cat No. 10-040-CM) with 10% fetal bovine serum (FBS), heat inactivated (JRH Biosciences, Inc, Lenexa, Kansas, Cat No. 12106-500M) according to ATCC propagation protocol. Cells were maintained at a density of 3.5×10^5. The day before the experiment, Ramos B-cells were diluted to 3.5×10^5 cells/mL to ensure that they were in a logarithmic growth phase.
Cells were spun down and suspended in RPMI with 5% serum. 5×10^4 cells were used per point in a 96-well tissue culture plate. Cells were pre-incubated with compound or DMSO (Sigma-Aldrich, St. Louis, MO, Cat No. D2650) vehicle control for 1 hour in a 37° C. incubator. Cells were then stimulated with IL-4 (Peprotech Inc., Rocky Hill, NJ, Cat No. 200-04) for a final concentration of 50 units/mL for 20-24 hours. Cells were then spun down and stained with anti-CD23-PE(BD Pharmingen, San Diego, CA, Cat No. 555711) and analyzed by FACS. Detection was performed using a BD LSR I System Flow Cytometer, purchased from Becton Dickinson Biosciences of San Jose, California The IC50 calculated based on the results of this assay are provided in TABLE XII.

| pIC50 | Compound |
| --- | --- |
| 6.94 | C#CCn1ccc2ccc(Nc3nc(Nc4ccc(C)c(S(N)(=O)=O)c4)ncc3F)cc21 [IX-3, N2-(3-Aminosulfonyl-4-methylphenyl)-5-fluoro-N4-[1-(propyn-3-yl)indol-6-yl]-2,4-pyrimidinediamine] |
| 6.18 | CCCN(c1ccc(OC)c(Cl)c1)c1nc(Nc2ccc(C)c(S(N)(=O)=O)c2)ncc1F [VI-22, N2-(3-Aminosulfonyl-4-methylphenyl)-N4-(3-chloro-4-methoxyphenyl)-5-fluoro-N4-propyl-2,4-pyrimidinediamine] |
| 6.75 | CNS(=O)(=O)c1ccc(Nc2ncc(F)c(Nc3ccc(OC)c(OC)c3)n2)cc1OC [IX-50, N4-(3,4-Dimethoxyphenyl)-5-fluoro-N2-[4-(N-methyl)aminosulfonyl-3-methoxyphenyl]-2,4-pyrimidinediamine] |
| 5.08 | CCN(CC)S(=O)(=O)c1ccc(OC)c(Nc2nc(Nc3ccc(Cl)c(Cl)c3)cc(C(=O)OC)n2)c1 [Compound X-1, 6-carbonylmethoxy-N4-(3,4-dichlorophenyl)-N2-(3-N,N-diethylaminosulfonyl-6-methoxyphenyl)-2,4-pyrimidinediamine] |
| 4.44 | COC(=O)[C@@H]1C[C@H](Nc2nc(Nc3ccc(C)c(S(N)(=O)=O)c3)ncc2F)CN1C(=O)CC#N [VII-2, N2-(3-Aminosulfonyl-4-methylphenyl)-N4-[(2S,4S)-1-(2-cyanoacetyl)-2-methoxycarbonylpyrrolidin-4-yl]-5-fluoro-2,4-pyrimidinediamine] |
| 4.74 | COc1ccc(Nc2nc(Nc3ccncc3S(N)(=O)=O)ncc2F)cc1Cl [VI-31, N2-(3-Aminosulfonylpyrid-4-yl)-N4-(3-chloro-4-methoxyphenyl)-5-fluoro-2,4-pyrimidinediamine] |

Same assay, conditions: Homo sapiens, Ramos, Ramos B-cell line stimulated with IL-4; CD23 expression by FACS; read-out: IC50, Example 41

| pIC50 | Compound |
| --- | --- |
| 5.85 | CCC(=O)NS(=O)(=O)c1cc(Nc2ncc(F)c(Nc3ccc(OCC#N)c(F)c3)n2)ccc1C [Compound I-48, N4-(4-Cyanomethoxy-3-fluorophenyl)-5-fluoro-N2-(4-methyl-3-propionylaminosulfonylphenyl)-2,4-pyrimidinediamine] |
| 5.85 | COc1cc(Nc2nc(Nc3cccc(S(N)(=O)=O)c3)ncc2F)ccc1OCC(N)=O [Compound I-104, N4-(4-Aminocarbonylmethoxy-3-methoxyphenyl)-N2-(3-aminosulfonylphenyl)-5-fluoro-2,4-pyrimidinediamine] |
| 6.06 | CN(C)C(=O)COc1ccc(Nc2nc(Nc3ccc(S(N)(=O)=O)cc3)ncc2F)cc1 [Compound I-128, N2-(4-Aminosulfonylphenyl)-N4-(4-dimethylaminocarbonylmethoxyphenyl)-5-fluoro-2,4-pyrimidinediamine] |
| 4.94 | CCC(=O)NS(=O)(=O)c1cc(Nc2ncc(F)c(Nc3ccc(OCC(=O)OC)cc3)n2)ccc1C [Compound I-213, 5-Fluoro-N4-(4-methoxycarbonylmethoxyphenyl)-N2-(4-methyl-3-propionylaminosulfonylphenyl)-2,4-pyrimidinediamine] |

Same assay, conditions: Ramos B cells stimulated with IL-4, CD23 expression by FACS; read-out: IC50, Example 41

| Compound | pIC50 |
| --- | --- |
| COC(=O)CNS(=O)(=O)c1cccc(Nc2ncc(F)c(Nc3ccc(Cl)c(Cl)c3)n2)c1 [VI-8, N4-(3,4-Dichlorophenyl)-5-fluoro-N2-[3-(N-methoxycarbonylmethylene)aminosulfonylphenyl]-2,4-pyrimidinediamine] | 5.64 |
| CNS(=O)(=O)c1cc(Nc2ncc(F)c(Nc3ccc(C(=O)N4CCN(C(C)=O)CC4)cc3)n2)ccc1C [IX-25, N4-[4-(1-Acetyl-4-piperizinyl)carbonylphenyl]-5-fluoro-N2-[3-(N-methylaminosulfony)-4-methylphenyl]-2,4-pyrimidinediamine] | 5.20 |
| N2-(3-aminosulfonyl-4-methyl)phenyl-5-fluoro-N4-(4-thiomethylcarbonyl)phenyl-2,4-pyrimidinediamine [VI-95] | 6.00 |
| CS(=O)(=O)N1CCN(C(=O)c2ccc(Nc3nc(Nc4cccc(S(N)(=O)=O)c4)ncc3F)cc2)CC1 [IX-29, N2-(3-Aminosulfonylphenyl)-5-fluoro-N4-[4-(1-methanesulfonyl-4-piperizinyl)carbonylphenyl]-2,4-pyrimidinediamine] | 5.46 |
| COC(=O)CNS(=O)(=O)c1cccc(Nc2ncc(F)c(Nc3ccc(OC)c(Cl)c3)n2)c1 [VI-7, N4-(3-Chloro-4-methoxyphenyl)-5-fluoro-N2-[3-(N-methoxycarbonylmethylene)aminosulfonylphenyl]-2,4-pyrimidinediamine] | 6.12 |
| CN(C)c1ccc2cc(Nc3nc(Nc4cccc(S(N)(=O)=O)c4)ncc3F)ccc2n1 [VII-76, N2-(3-Aminosulfonylphenyl)-N4-(2-N,N′-dimethylamine-quinolin-6-yl)-5-fluoro-2,4-pyrimidinediamine] | 6.17 |

Next, values leading:

| pIC50 | Compound |
| --- | --- |
| 6.53 | CCNC(=O)NCCc1ccc(Nc2nc(Nc3ccc(C)c(S(N)(=O)=O)c3)ncc2F)cc1 [III-124, N2-(3-aminosulfonyl-4-methyl)phenyl-N4-[4-(2-ethylaminocarbonylamino)ethyl]phenyl-5-fluoro-2,4-pyrimidinediamine] |
| 6.06 | N4-(2-Amino-3-methoxypyrid-6-yl)-N2-[3-(ethoxycarbonylmethylene)aminosulfonylphenyl)-5-fluoro-2,4-pyrimidinediamine [VII-10] |

Same assay, conditions: Ramos B-cell line stimulated with IL-4; CD23 expression by FACS; read-out: IC50, Example 41

| Compound | pIC50 |
| --- | --- |
| CCOc1cc(Nc2nc(Nc3ccc(C)c(S(=O)(=O)NC)c3)ncc2F)ccc1-c1ccccn1 [Compound I-170, 5-Fluoro-N2-[3-N-(methyl)aminosulfonyl-4-methylphenyl]-N4-[4-(2-pyridinyl)-3-methylmethyleneoxyphenyl]-2,4-pyrimidinediamine] | 6.35 |
| CN1CCN(S(=O)(=O)c2cccc(Nc3ncc(F)c(Nc4ccc(OCC(N)=O)cc4)n3)c2)CC1 [Compound I-112, N4-(4-Aminocarbonylmethoxy)phenyl-5-fluoro-N2-[3-(4-methylpiperazin-1-yl)sulfonyl]phenyl-2,4-pyrimidinediamine] | 5.63 |
| CCC(=O)NS(=O)(=O)c1cccc(Nc2ncc(F)c(Nc3ccc(OCc4cc(C)on4)cc3)n2)c1 [Compound I-236] | 5.70 |
| Cc1cc(COc2ccc(Nc3nc(Nc4cccc(S(=O)(=O)NCc5oc(=O)oc5C(C)(C)C)c4)ncc3F)cc2)no1 [Compound I-250, N2-{3-[(N-5-t-Butyl-1,3-dioxolene-2-one-4-yl)methylene]aminosulfonylphenyl}-5-fluoro-N4-[4-(5-methylisoxazol-3-yl)methyleneoxyphenyl]-2,4-pyrimidinediamine] | 6.17 |

The remaining lines, values ahead:

| pIC50 | Compound |
| --- | --- |
| 5.99 | NS(=O)(=O)c1ccc(Nc2ncc(F)c(Nc3ccc(CNC(=O)C4CC4)cc3)n2)cc1 [III-41, N2-(4-aminosulfonyl)phenyl-N4-(4-cyclopropylcarbonylaminomethyl)phenyl-5-fluoro-2,4-pyrimidinediamine] |
| 5.71 | CCN(CC)CCNS(=O)(=O)c1ccc(Nc2ncc(F)c(Nc3ccc(Cc4ccncc4)cc3)n2)cc1 [III-72, N2-[4-(2-N,N-Diethylaminoethyl)aminosulfonylphenyl)-5-fluoro-N4-[4-(4-pyridinylmethyl)phenyl]-2,4-pyrimidinediamine] |
| 5.30 | CN1CCN(S(=O)(=O)c2cccc(Nc3ncc(F)c(Nc4ccc(CC#N)cc4)n3)c2)CC1 [III-5, N4-(4-Cyanomethyl)phenyl-5-fluoro-N2-[3-(4-methylpiperazin-1-yl)sulfonyl]phenyl-2,4-pyrimidinediamine] |
